Data: patent US20240216589A1, “DRUG DELIVERY COMPOSITIONS AND METHODS OF CONTROLLING DRUG DELIVERY RATES OF SUBCUTANEOUS SENSORS” (ABBOTT DIABETIS CARE INC., priority 2022, published 2024)

Experiment: Dex solubility in the polyvinylpyridine-ethanol:water (95:5 by volume) solution
Type: physicochemical
Experimental: FIG. 33 illustrates the Dex solubility in the polyvinylpyridine-ethanol:water (95:5 by volume) solution according to certain embodiments of the present disclosure. The solubility of Dex in the PVP-ethanol:water solution was measured. For the solutions containing 0 wt %-30 wt % of Dex relative to the weight amount of PVP polymer, after the solutions were vortexed/sonicated within 15 minutes, the solutions became clear. […] Therefore, the drug delivery composition can include up to 40 wt % of Dex relative to the amount of copolymer to make a clear drug delivery composition.

C[C@@H]1C[C@H]2[C@@H]3CCC4=CC(=O)C=C[C@]4(C)[C@@]3(F)[C@@H](O)C[C@]2(C)[C@@]1(O)C(=O)CO [Dex, dexamethasone]
solution clarity (0 wt %-30 wt % of Dex relative to PVP, vortexed/sonicated within 15 minutes): became clear | solution clarity (40 wt % of Dex relative to PVP, mixing overnight on the nutator): became clear after mixing overnight | solution clarity (50 wt % of Dex relative to PVP, mixing overnight on the nutator): did not become clear | maximum Dex relative to the amount of copolymer to make a clear drug delivery composition (ethanol:water 95:5 by volume): up to 40 wt %
